Eleven compounds from US10208074B2, “Pyrazole compounds and method for making and using the compounds” (Rigel Pharmaceuticals, Inc., priority 2015, dated 2019) can be followed below.

Where a name gives a salt, the structure may show the parent alone. Read-outs that look alike come from different tables or passages of the source.

Test [1] has as its system IL-23 (p19/p40). Briefly: IL23-p19 ELISA, Dendritic, LPS (compound screening using DC cells). It counts as cell-based, Human. The note with it: PBMC-derived DC cells, IFNγ primed, LPS 1 μg/ml, 18 hours, 10 pt, read-out: IL23-p19 ELISA, Dendritic, LPS, 10 pt, EC50. Put shortly: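 Human PBMC-derived dendritic cells (7 d GM-CSF 100 ng/ml + IL-4 20 ng/ml), primed 24 h with IFNγ 50 ng/ml, pre-incubated 1 h with compound, then stimulated 18 h with LPS 1 μg/ml. Supernatant IL-23 measured by p19-capture/p40-detection chemiluminescent ELISA; CellTiter Glo checks cytotoxicity.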

The test system of test [2] is IL-23p19. Briefly: LPS induced IL23p19 in THP-1 cells (with IFNγ primed) assay. In kind it is cell-based, Human. The note with it: THP-1 cells, IFNγ primed, LPS 1 ug/mL, 18 hours, 10 pt, read-out: IL23-p19 ELISA, THP1-IFNy, LPS, 10 pt EC50. Put shortly:
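THP-1 cells primed ~18 h with IFNγ (50 ng/mL), pre-incubated 1 h with compound at 37 °C, then stimulated 18 h with LPS (1 ug/mL final). Supernatant IL-23p19 measured by sandwich ELISA with chemiluminescent read-out; EC50 from curve fitting. Toxicity checked on the remaining cells by Cell Titer Glo.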

Turning to `CC(C)O[C@H]1C[C@@H](n2cc(NC(=O)c3csc(-c4cn[nH]c4)n3)c(-c3ccccn3)n2)C1` [II-76, N-(1-((1,3-cis)-3-isopropoxycyclobutyl)-3-(pyridin-2-yl)-1H-pyrazol-4-yl)-2-(1H-pyrazol-4-yl)thiazole-4-carboxamide], the EC50 in test [1] (Homo sapiens, 18 h) amounted to 47.5 nM; in test [2] (Homo sapiens, THP-1, 18 h), 52.4 nM.

With `CC(C)[C@H](NC(=O)OC(C)(C)C)C(=O)n1cc(-c2nc(C(=O)Nc3cn(C)nc3-c3ccccn3)cs2)cn1` [II-3, tert-butyl (S)-(3-methyl-1-(4-(4-((1-methyl-3-(pyridin-2-yl)-1H-pyrazol-4-yl)carbamoyl)thiazol-2-yl)-1H-pyrazol-1-yl)-1-oxobutan-2-yl)carbamate], the EC50 in test [1] (Homo sapiens, 18 h) is 371 nM; in test [2] (Homo sapiens, THP-1, 18 h), 198 nM.

As to `O=C(Nc1cn(CCN2CCOCC2)nc1-c1ccccn1)c1csc(-c2cn[nH]c2)n1` [II-60, N-(1-(2-morpholinoethyl)-3-(pyridin-2-yl)-1H-pyrazol-4-yl)-2-(1H-pyrazol-4-yl)thiazole-4-carboxamide], the concentration for a half-maximal effect (EC50) in test [1] (Homo sapiens, 18 h) came out at 53.3 nM; in test [2] (Homo sapiens, THP-1, 18 h), 47.3 nM.

With `CCOCCn1cc(NC(=O)c2csc(-c3cn[nH]c3)n2)c(-c2ccccn2)n1` [II-18, N-(1-(2-ethoxyethyl)-3-(pyridin-2-yl)-1H-pyrazol-4-yl)-2-(1H-pyrazol-4-yl)thiazole-4-carboxamide, formic acid salt], the EC50 in test [1] (formic acid salt) turned out to be 31.4 nM; in test [2] (formic acid salt), 301 nM.

Consider `CC(C)n1cc(NC(=O)c2csc(-c3cn[nH]c3)n2)c(-c2ccccn2)n1` [II-59, N-(1-isopropyl-3-(pyridin-2-yl)-1H-pyrazol-4-yl)-2-(1H-pyrazol-4-yl)thiazole-4-carboxamide], for which the EC50 came out at 216 nM in test [1] (Homo sapiens, 18 h) and 422 nM in test [2] (Homo sapiens, THP-1, 18 h).

`O=C(Nc1cn(C2CCOCC2)nc1-c1nccs1)c1csc(-c2cn[nH]c2)n1` [II-111, 2-(1H-pyrazol-4-yl)-N-(1-(tetrahydro-2H-pyran-4-yl)-3-(thiazol-2-yl)-1H-pyrazol-4-yl)thiazole-4-carboxamide]: the EC50 in test [1] (Homo sapiens, 18 h) came to 34.3 nM; in test [2] (Homo sapiens, THP-1, 18 h), 65.1 nM.

In the case of `CCO[C@H]1C[C@@H](n2cc(NC(=O)c3csc(-c4cnn(COP(=O)(O)O)c4)n3)c(-c3ccccn3)n2)C1` [II-16, (4-(4-((1-((1,3-cis)-3-ethoxycyclobutyl)-3-(pyridin-2-yl)-1H-pyrazol-4-yl)carbamoyl)thiazol-2-yl)-1H-pyrazol-1-yl)methyl phosphate bis-sodium salt], the EC50 in test [1] (phosphate bis-sodium salt) stood at 525 nM; in test [2] (phosphate bis-sodium salt) it was 121 nM.

`Cn1cc(NC(=O)c2ccc(-c3cn[nH]c3)o2)c(-c2ccc(OC3COC3)cn2)n1` [Compound I-108, N-(1-methyl-3-(5-(oxetan-3-yloxy)pyridin-2-yl)-1H-pyrazol-4-yl)-5-(1H-pyrazol-4-yl)furan-2-carboxamide]: the EC50 worked out at 730 nM in test [1] (Homo sapiens, 18 h) and 491 nM in test [2] (Homo sapiens, THP-1, 18 h).

Turning to `COC1CC(n2cc(NC(=O)c3csc(-c4cn[nH]c4)n3)c(-c3ccccn3)n2)C1` (stereo not shown) [II-57, N-{1-(3-Methoxycyclobutyl)-3-(pyridine-2-yl)-1H-pyrazol-4-yl}-2-(1H-pyrazol-4-yl)thiazole-4-carboxamide], the EC50 came out at 85.4 nM in test [1] (Homo sapiens, 18 h) and 41.8 nM in test [2] (Homo sapiens, THP-1, 18 h).

With `CCO[C@H]1C[C@@H](n2cc(NC(=O)c3csc(-c4cnn(COP(=O)(O)O)c4)n3)c(-c3ccccn3)n2)C1` [II-85, (4-(4-((1-((1,3-cis)-3-ethoxycyclobutyl)-3-(pyridin-2-yl)-1H-pyrazol-4-yl)carbamoyl)thiazol-2-yl)-1H-pyrazol-1-yl)methyl phosphate triethylamine salt], the concentration for a half-maximal effect (EC50) came out at 287 nM in test [1] and 49.9 nM in test [2].

Regarding `COCCOCCn1cc(NC(=O)c2coc(-c3cc[nH]n3)n2)c(-c2ccccn2)n1` [III-6, N-(1-(2-(2-methoxyethoxy)ethyl)-3-(pyridin-2-yl)-1H-pyrazol-4-yl)-2-(1H-pyrazol-3-yl)oxazole-4-carboxamide], the concentration for a half-maximal effect (EC50) in test [1] (Homo sapiens, 18 h) turned out to be 217 nM; in test [2] (Homo sapiens, THP-1, 18 h), 238 nM.
